Laboratory results taken from ChEMBL document CHEMBL3734749, “Naturally occurring FANCFHes1 complex inhibitors from Wrightia religiosa” (Medchemcomm, 2015).
Calls of active or inactive are those of the source. No cut-off for these calls is given here.

Columns and labels:
[1] = Inhibition of Cy3-GST-tagged human recombinant full length FANCF/Cy3-tagged rat Hes1 (3 to 281 amino acid residues) interaction expressed in Escherichia coli JM109 at 50 uM after 1 hrs by microplate reader assay
[2] = target: T1, Transcription factor HES-1 (Homo sapiens, UniProt Q14469); assay: Inhibition of Cy3-tagged human recombinant full length HES1 (1 to 280 amino acid residues)/Cy3-GST-tagged human recombinant full length HES1 (1 to 280 amino acid residues) dimer formation expressed in Escherichia coli JM109 after 1 hr by microplate reader assay
T1 sequence (Q14469 whole entry): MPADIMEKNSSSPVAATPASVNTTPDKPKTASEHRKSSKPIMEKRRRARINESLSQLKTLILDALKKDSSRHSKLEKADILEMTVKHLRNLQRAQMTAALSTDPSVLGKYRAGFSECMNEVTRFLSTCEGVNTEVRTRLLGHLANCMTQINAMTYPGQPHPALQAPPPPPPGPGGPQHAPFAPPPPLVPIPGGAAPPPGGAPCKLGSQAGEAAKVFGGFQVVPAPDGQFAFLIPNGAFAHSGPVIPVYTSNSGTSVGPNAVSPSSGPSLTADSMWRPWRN

[3] = Inhibition of GST-tagged recombinant mouse beta-catenin (128 to 683 amino acid residues)/human recombinant TCF4E (1 to 100 amino acid residues) complex formation expressed in Escherichia coli JM109 after 1 hrs by microplate reader assay
Bone marrow cell [4] = assay: Reduction of colony formation in Fanconi C deficient mouse bone marrow cells at 50 uM after 10 to 14 days; format: functional, cell-based
[5] = Reduction of colony formation in wild type mouse bone marrow cells at 50 uM after 10 to 14 days; format: functional, Bone marrow cell; design: scale not given: the % may be the effect or the level left
[6] = target: T2, Fanconi anemia group F protein/Transcription factor HES-1 (Homo sapiens) (UniProt Q9NPI8+Q14469); assay: Inhibition of Cy3-GST-tagged human recombinant full length FANCF/Cy3-tagged human full length HES1 (1 to 280 amino acid residues) interaction expressed in Escherichia coli JM109 at 10 uM after 1 hrs by microplate reader assay
Bone marrow cell [7] = assay: Reduction of colony formation in Fanconi A deficient mouse bone marrow cells at 50 uM after 10 to 14 days; format: functional, cell-based
[8] = target: T3, Fanconi anemia group F protein/Transcription factor HES-1 (Homo sapiens, UniProt Q14469+Q9NPI8); assay: (§1) Inhibition of Cy3-GST-tagged human recombinant full length FANCF/Cy3-tagged human full length HES1 (1 to 280 amino acid residues) interaction expressed in Escherichia coli JM109 after 1 hrs by microplate reader assay
T3 sequence (Q9NPI8 whole entry): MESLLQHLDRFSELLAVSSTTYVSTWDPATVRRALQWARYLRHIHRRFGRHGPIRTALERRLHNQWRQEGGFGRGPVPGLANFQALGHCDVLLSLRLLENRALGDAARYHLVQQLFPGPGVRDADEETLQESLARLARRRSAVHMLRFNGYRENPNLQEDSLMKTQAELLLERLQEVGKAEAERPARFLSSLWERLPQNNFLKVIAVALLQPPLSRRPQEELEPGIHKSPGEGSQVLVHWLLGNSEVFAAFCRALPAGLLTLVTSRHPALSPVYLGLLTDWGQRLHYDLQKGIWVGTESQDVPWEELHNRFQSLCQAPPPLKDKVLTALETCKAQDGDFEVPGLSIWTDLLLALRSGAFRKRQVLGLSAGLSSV
T3 sequence (Q14469 whole entry): T1 sequence (Q14469 whole entry)

[9] = target: T2, Fanconi anemia group F protein/Transcription factor HES-1 (Homo sapiens); assay: as §1

C[C@@H]1O[C@@H](OC[C@H]2O[C@@H](Oc3c(-c4ccc(O[C@@H]5O[C@@H](C)[C@H](O)[C@@H](O)[C@H]5O)c(O)c4)oc4cc(O)cc(O)c4c3=O)[C@H](O)[C@@H](O)[C@@H]2O)[C@H](O)[C@H](O)[C@H]1O
inhibition [1]: Active | IC50 [2]: 25.7 µM | IC50 [3]: > 100 µM | Activity (Bone marrow cell [4]): inactive | Activity [5]: 40% | inhibition [6]: 40% | Activity (Bone marrow cell [7]): Active | IC50 [8]: 23.6 µM | inhibition [9]: Dose-dependent effect

C[C@@H]1O[C@@H](OC[C@H]2O[C@@H](Oc3c(-c4ccc(O[C@@H]5O[C@@H](C)[C@H](O)[C@@H](O)[C@H]5O)cc4)oc4cc(O)cc(O)c4c3=O)[C@H](O)[C@@H](O)[C@@H]2O)[C@H](O)[C@H](O)[C@H]1O
inhibition [1]: Active | inhibition [9]: Dose-dependent effect

C[C@@H]1O[C@@H](OC[C@H]2O[C@@H](Oc3c(-c4ccc(O)c(O)c4)oc4cc(O)cc(O)c4c3=O)[C@H](O)[C@@H](O)[C@H]2O)[C@H](O)[C@H](O)[C@H]1O
inhibition [1]: Active | IC50 [2]: > 100 µM | IC50 [3]: > 100 µM | inhibition [6]: 40% | IC50 [8]: 35.8 µM | inhibition [9]: Dose-dependent effect
